Where a name gives a salt, the structure may show the parent alone.
Legend:
Details in all cases: stereoisomer not certain
[1] = HILIC, Merck SeQuant ZIC-pHILIC, 150 × 2.1 mm, 5 µm, 40 °C, 0.3 mL/min, estimated dead time 1.1 min; A: acetonitrile; B: water + 2.8 mM ammonium formate, pH 9; gradient (min/%B) 0/5 1/5 10/51 13/51 13.1/5 20/5
[2] = RP, Phenomenex Kinetex C18, 150 × 2.1 mm, 1.7 µm, 30 °C, 0.3 mL/min, estimated dead time 1.1 min; A: water + 0.1% formic acid, pH 3; B: acetonitrile + 0.1% formic acid, pH 3; gradient (min/%B) 0/2 14/100 17/100 17.1/2 25/2
[3] = HILIC, Waters ACQUITY UPLC BEH Amide, 150 × 2.1 mm, 1.7 µm, 40 °C, 0.5 mL/min, estimated dead time 0.66 min; A: 5% water + 95% acetonitrile; B: 70% water + 30% acetonitrile + 10 mM ammonium formate, pH 6.5; gradient (min/%B) 0/0 2/0 20/70 23/70 24/0 31/0

| LC retention time [1] [min] | LC retention time [2] [min] | LC retention time [3] [min] | Compound |
| --- | --- | --- | --- |
| 6.67 | 1.95 | 4.81 | O=c1cccc(O)[nH]1 [2,6-DIHYDROXYPYRIDINE] |
|  | 4.46 | 0.9 | O=C(O)Cc1ccccc1O [2-HYDROXYPHENYLACETATE] |
| 7.81 | 3.93 |  | O=C(O)Cc1ccc(O)c(O)c1 [3,4-DIHYDROXYPHENYLACETATE] |
| 2.12 | 6.02 | 1.02 | O=C([O-])CCc1ccccc1O [3-(2-HYDROXYPHENYL)PROPANOATE] |
| 6.39 | 4.87 |  | O=C(O)c1cccc([O-])c1 [3-HYDROXYBENZOATE] |
| 5.88 | 4.82 |  | O=C(O)Cc1cccc(O)c1 [3-HYDROXYPHENYLACETATE] |
| 6.9 | 2.94 |  | COc1cc(C(O)C(=O)O)ccc1O (stereo not drawn) [3-METHOXY-4-HYDROXYMANDELATE] |
|  | 1.36 |  | Nc1ncnc2c1ncn2C1OC(COP(=O)(O)O)C(OP(=O)(O)O)C1O (stereo not drawn) [ADENOSINE 3',5'-DIPHOSPHATE] |
| 8.23 | 1.41 |  | Nc1ncnc2c1ncn2C1OC(COP(=O)(O)O)C(O)C1O (stereo not drawn) [ADENOSINE-MONOPHOSPHATE] |
| 8.82 | 1.38 |  | NC(=O)c1ncn(C2OC(COP(=O)(O)O)C(O)C2O)c1N (stereo not drawn) [AICAR] |
| 8.52 | 1.4 |  | NC(=O)c1ccc[n+](C2OC(COP(=O)(O)OP(=O)([O-])OCC3OC(n4cnc5c(N)ncnc54)C(O)C3O)C(O)C2O)c1 (stereo not drawn) [BETA-NICOTINAMIDE ADENINE DINUCLEOTIDE] |
| 7.95 | 1.55 |  | Nc1ncnc2c1ncn2C1CC(O)C(COP(=O)(O)O)O1 (stereo not drawn) [DEOXYADENOSINE MONOPHOSPHATE] |
| 8.61 | 1.4 |  | Nc1ccn(C2CC(O)C(COP(=O)(O)O)O2)c(=O)n1 (stereo not drawn) [DEOXYCYTIDINE MONOPHOSPHATE] |
| 8.92 | 1.67 |  | Nc1nc2c(ncn2C2CC(O)C(COP(=O)(O)O)O2)c(=O)[nH]1 (stereo not drawn) [DEOXYGUANOSINE-MONOPHOSPHATE] |
| 8.2 | 1.41 |  | O=c1ccn(C2CC(O)C(COP(=O)(O)O)O2)c(=O)[nH]1 (stereo not drawn) [DEOXYURIDINE-MONOPHOSPHATE] |
| 8.93 | 1.52 |  | Cc1cn(C2CC(O)C(COP(=O)(O)OP(=O)(O)OC3OC(CO)C(O)C(O)C3O)O2)c(=O)[nH]c1=O [DTDP-D-GLUCOSE] |
| 9.41 | 1.41 |  | Nc1nc2c(ncn2C2OC(COP(=O)(O)O)C(O)C2O)c(=O)[nH]1 (stereo not drawn) [GUANOSINE MONOPHOSPHATE] |
|  | 1.41 |  | NC(=O)c1ccc[n+](C2OC(COP(=O)(O)OP(=O)(O)OCC3OC(n4cnc5c(N)ncnc54)C(OP(=O)(O)O)C3O)C(O)C2O)c1 (stereo not drawn) [NADP] |
|  | 1.45 |  | NC(=O)c1ccc[n+](C2OC(COP(=O)(O)OP(=O)(O)OCC3OC(n4cnc5c(=O)[nH]cnc54)C(O)C3O)C(O)C2O)c1 (stereo not drawn) [NICOTINAMIDE HYPOXANTHINE DINUCLEOTIDE] |
| 5.76 | 4.59 |  | O=C(O)Cc1ccc(O)cc1 [P-HYDROXYPHENYLACETATE] |
| 5.27 | 4.94 |  | O=C(O)C(=O)Cc1ccccc1 [PHENYLPYRUVATE] |
|  | 1.5 |  | Cc1ncc(COP(=O)(O)O)c(C=O)c1O [PYRIDOXAL-PHOSPHATE] |
| 8.51 | 1.97 |  | Nc1ncnc2c1ncn2C1OC(CSCCC([NH3+])C(=O)[O-])C(O)C1O (stereo not drawn) [S-ADENOSYLHOMOCYSTEINE] |
| 10.2 | 1.45 |  | O=c1[nH]c(=O)c2ncn(C3OC(COP(=O)(O)O)C(O)C3O)c2[nH]1 (stereo not drawn) [XANTHOSINE-MONOPHOSPHATE] |

Continued, molecule first:

| Compound | LC retention time [1] [min] | LC retention time [2] [min] | LC retention time [3] [min] |
| --- | --- | --- | --- |
| O=C(O)c1ccc2ccccc2c1[O-] [1-HYDROXY-2-NAPHTHOATE] | 1.49 | 9.28 |  |
| O=C(O)c1cccc(O)c1[O-] [2,3-DIHYDROXYBENZOATE] | 5.74 | 4.92 |  |
| O=C(O)c1cc(O)ccc1[O-] [2,5-DIHYDROXYBENZOATE] | 6.29 | 4.46 |  |
| Nc1ccccc1O [2-AMINOPHENOL] | 7.38 | 1.52 | 0.87 |
| CSCCC(O)C(=O)O (stereo not drawn) [2-HYDROXY-4-(METHYLTHIO)BUTANOATE] | 4.59 | 3.82 | 1.29 |
| CC(CCC(=O)O)C(=O)O (stereo not drawn) [2-METHYLGLUTARATE] | 7.37 | 3.85 | 5.2 |
| O=C(O)C(O)c1ccc(O)c(O)c1 (stereo not drawn) [3,4 DIHYDROXYMANDELATE] | 8.57 | 1.7 |  |
| OCC(O)c1ccc(O)c(O)c1 (stereo not drawn) [3,4-DIHYDROXYPHENYLGLYCOL] | 6.22 | 1.82 |  |
| Nc1cc(C(=O)O)ccc1[O-] [3-AMINO-4-HYDROXYBENZOATE] | 7.39 | 1.52 | 1.84 |
| Nc1c([O-])cccc1C(=O)O [3-HYDROXYANTHRANILATE] | 6.24 | 3.68 | 1.39 |
| CCC(C)C(=O)C(=O)[O-] (stereo not drawn) [3-METHYL-2-OXOVALERATE] |  | 4.14 | 1.83 |
| NC(N)=NCCCC(=O)O [4-GUANIDINOBUTANOATE] |  | 1.39 | 10.1 |
| O=Cc1ccc(O)cc1 [4-HYDROXYBENZALDEHYDE] | 1.43 | 5.11 | 2.67 |
| Cc1ccc(O)c(O)c1 [4-METHYLCATECHOL] |  | 3.31 |  |
| Nc1ccccc1S(=O)(=O)O [ANILINE-2-SULFONATE] | 5.89 | 2.04 |  |
| O=Cc1ccccc1 [BENZALDEHYDE] |  | 3.93 |  |
| C=CC1=C(C)C(C=c2[nH]c(=Cc3[nH]c(C=C4NC(=O)C(C)=C4C=C)c(C)c3CCC(=O)O)c(CCC(=O)O)c2C)=NC1=O [BILIVERDIN] |  | 9.08 | 1.13 |
| CC(O)(CC(=O)O)C(=O)O (stereo not drawn) [CITRAMALATE] | 8.8 | 1.94 |  |
| O=C(O)CC(O)(CC(=O)O)C(=O)O [CITRATE] | 10.2 | 1.57 |  |
| NCCc1ccc(O)c(O)c1 [DOPAMINE] |  | 1.62 | 8.68 |
| CCC(C(=O)O)C(=O)O [ETHYLMALONATE] |  | 3.46 |  |
| O=C(O)C=CC(=O)O [FUMARATE] | 9.5 | 1.88 |  |
| O=C(O)CCCC(=O)O [GLUTARATE] |  | 2.92 | 2 |

| Compound | LC retention time [1] [min] | LC retention time [2] [min] | LC retention time [3] [min] |
| --- | --- | --- | --- |
| C[N+](C)(C)CC(CC(=O)[O-])OC(=O)CCCC(=O)O (stereo not drawn) [GLUTARYLCARNITINE] |  | 2.56 | 11.9 |
| NC(CCC(=O)NC(CS)C(=O)NCC(=O)O)C(=O)O (stereo not drawn) [GLUTATHIONE REDUCED] | 8.59 | 1.46 |  |
| Oc1ccc(O)cc1 [HYDROQUINONE] | 6.29 | 4.46 |  |
| O=S(=O)(O)Oc1c[nH]c2ccccc12 [INDOXYL SULFATE] |  | 4.62 |  |
| CCC(C)C(N)C(=O)O (stereo not drawn) [ISOLEUCINE] | 7.18 | 1.9 |  |
| C=C(CC(=O)O)C(=O)O [ITACONATE] |  | 3.16 |  |
| CC(CCC(=O)O)C1CCC2C3CCC4CC(O)CCC4(C)C3CCC12C (stereo not drawn) [LITHOCHOLATE] |  | 12.8 | 0.84 |
| O=C([O-])C=CC(=O)[O-] [MALEATE] | 2.45 | 1.53 |  |
| O=C([O-])C(O)c1ccccc1 (stereo not drawn) [MANDELATE] | 4.83 | 4.45 |  |
| CC(C(=O)O)C(=O)O [METHYLMALONATE] |  | 2.19 |  |
| CC1(O)CCOC(=O)C1 (stereo not drawn) [MEVALOLACTONE] |  | 2.04 | 0.89 |
| CC(=O)NC(C)C(=O)O (stereo not drawn) [N-ACETYLALANINE] |  | 1.97 | 4.75 |
| CC(=O)NC(CS)C(=O)O (stereo not drawn) [N-ACETYLCYSTEINE] |  | 2.62 | 1.88 |
| O=C(O)CCCCCCCCCCCO [OMEGA-HYDROXYDODECANOATE] |  | 8.62 | 0.84 |
| CCC(NC(=O)CCC([NH3+])C(=O)[O-])C(=O)NCC(=O)[O-] (stereo not drawn) [OPHTHALMATE] | 8.32 | 1.58 |  |
| O=C([O-])Cc1ccccc1 [PHENYLACETATE] |  | 3.97 |  |
| O=C(O)C1CCCCN1 (stereo not drawn) [PIPECOLATE] |  | 1.38 |  |
| CC(=O)C1CCC2C3CC=C4CC(OS(=O)(=O)O)CCC4(C)C3CCC12C (stereo not drawn) [PREGNENOLONE SULFATE] |  | 8.69 |  |
| Oc1ccccc1O [PYROCATECHOL] | 8.04 | 3.77 |  |
| O=C(C=Cc1ccc(O)c(O)c1)OC(Cc1ccc(O)c(O)c1)C(=O)O (stereo not drawn) [ROSMARINATE] | 7.55 | 6.25 |  |
| CC=CC=CC(=O)[O-] [SORBATE] | 1.73 | 4.51 |  |
| O=C(O)CCC(=O)O [SUCCINATE] |  | 1.95 | 3.9 |
